Data published in ChEMBL document CHEMBL5241113, “Total Heterologous Biosynthesis of Fungal Natural Products in Aspergillus nidulans” (2022).
In brackets after ≈: the same amount, converted by molar mass.

Tested on: Nematoda
Experiment: Nematocidal activity
Assay type: functional

SMILES | LC50
CC(=O)O[C@@H](C)C[C@@H](O)[C@@H](C)[C@@H](O)[C@@H](C)C[C@H](C)[C@@H]1OC(=O)[C@H](C)NC(=O)C[C@@H](O)C[C@H](O)[C@H](C)C[C@H]1C | 0.5 mg/L (≈ 0.916 µM)
CC(=O)O[C@H](C[C@H](C)O)[C@@H](C)[C@@H](O)[C@@H](C)C[C@H](C)[C@@H]1OC(=O)[C@H](C)NC(=O)C[C@@H](O)C[C@H](O)[C@H](C)C[C@H]1C | 0.5 mg/L (≈ 0.916 µM)
